Measured values published in patent publication US10723705B2, “Heterocyclic compounds and uses thereof” (Incyte Corporation, priority 2015, dated 2020).
Where two headings read alike, the source gives them in different places.

Molecular target: Human recombinant Histone Deacetylase 8 (HDAC8) (Homo sapiens (Human), UniProt Q9BY41)
Assay: HDAC8 Enzymatic Assay (HDAC-Glo I/II luminescence)
Assay type: biochemical
Summary of the method: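 Human recombinant HDAC8 (1.5 nM final) preincubated with compound for 30 min, then reacted with 50 μM Boc-GAK(Ac)-aminoluciferin plus trypsin-containing developer for 15 min at room temperature, pH 8.0, 0.5% DMSO. Luminescence read-out; IC50 from percent control activity versus log concentration.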

[1] = class symbols, Table 14, read-out: HDAC8 IC50

Sequence of Human recombinant Histone Deacetylase 8 (HDAC8) (Q9BY41 whole entry): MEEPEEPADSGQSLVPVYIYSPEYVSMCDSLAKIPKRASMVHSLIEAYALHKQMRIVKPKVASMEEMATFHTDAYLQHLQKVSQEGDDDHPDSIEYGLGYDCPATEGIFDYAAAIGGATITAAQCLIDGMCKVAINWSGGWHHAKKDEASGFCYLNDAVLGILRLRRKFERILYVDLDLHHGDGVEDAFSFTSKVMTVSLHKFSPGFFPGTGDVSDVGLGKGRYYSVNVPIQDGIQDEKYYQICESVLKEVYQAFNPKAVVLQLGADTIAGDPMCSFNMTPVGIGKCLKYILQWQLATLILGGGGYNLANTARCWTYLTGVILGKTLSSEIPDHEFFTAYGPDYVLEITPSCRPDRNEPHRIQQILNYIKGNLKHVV

Compound | IC50 [1] | IC50 (HDAC8, read-out: IC50)
COCc1ccc(-c2cccc3nn(C(Cc4ccccc4)C(=O)NO)cc23)cc1 (stereo not drawn) [Compound I-0147, N-hydroxy-2-(4-(4-(methoxymeth-yl)phenyl)-2H-indazol-2-yl)-3-phenylpropanamide] | 200 to 500 nM | 
CN1CCN(c2ccc(-c3cccc4nn(C(Cc5ccccc5)C(=O)NO)cc34)cc2)CC1 (stereo not drawn) [Compound I-0148, N-hydroxy-2-(4-(4-(4-methylpiperazin-1-yl)phenyl)-2H-indazol-2-yl)-3-phenylpropanamide] | 50 to 200 nM | 
COCc1ccc(-c2ccn3c(C(Cc4ccccc4)C(=O)NO)cnc3c2)cc1 (stereo not drawn) [Compound I-0150, N-hydroxy-2-(7-(4-(methoxymethyl)phenyl)imidazo[1,2-a]pyridin-3-yl)-3-phenylpropanamide] | > 500 nM | 
CN1CCN(c2ccc(-c3ccn4c(C(Cc5ccccc5)C(=O)NO)cnc4c3)cc2)CC1 (stereo not drawn) [Compound I-0151, N-hydroxy-2-(7-(4-(4-methylpiperazin-1-yl)phenyl)imidazo[1,2-a]pyridin-3-yl)-3-phenylpropanamide] | > 500 nM | 
O=C(NO)C(Cc1ccccc1)n1ncc2cc(C3CCC(N4CCCC4)CC3)ccc21 (stereo not drawn) [Compound I-0153, N-hydroxy-3-phenyl-2-(5-(4-(pyrrolidin-1-yl)cyclohexyl)-1H-indazol-1-yl)propanamide] | 50 to 200 nM | 
O=C(NO)C(Cc1ccccc1)n1nc2c(-c3cccnc3)cccc2c1C#CC1CC1 (stereo not drawn) [Compound I-0155, 2-(3-(cyclopropylethynyl)-7-(pyridin-3-yl)-2H-indazol-2-yl)-N-hydroxy-3-phenylpropanamide] | ≤ 50 nM | 
NC(=O)c1cccc(-c2cccc3c(C#CC4CC4)n(C(Cc4ccccc4)C(=O)NO)nc23)c1 (stereo not drawn) [Compound I-0157, 3-(3-(cyclopropylethynyl)-2-(1-(hydroxyamino)-1-oxo-3-phenylpropan-2-yl)-2H-indazol-7-yl)benzamide] | ≤ 50 nM | 
CN(C)C(=O)c1cccc(-c2cccc3c(C#CC4CC4)n(C(Cc4ccccc4)C(=O)NO)nc23)c1 (stereo not drawn) [Compound I-0159, 3-(3-(cyclopropylethynyl)-2-(1-(hydroxyamino)-1-oxo-3-phenylpropan-2-yl)-2H-indazol-7-yl)-N,N-dimethylbenzamide] | ≤ 50 nM | 
O=C(NO)C(Cc1ccccc1)n1nc2c(C3CC3)cccc2c1C#CC1CC1 (stereo not drawn) [Compound I-0160, 2-(7-cyclopropyl-3-(cyclopropylethynyl)-2H-indazol-2-yl)-N-hydroxy-3-phenylpropanamide] | ≤ 50 nM | 
Cc1cccc2c(C#CC3CC3)n(C(Cc3ccccc3)C(=O)NO)nc12 (stereo not drawn) [Compound I-0161, 2-(3-(cyclopropylethynyl)-7-methyl-2H-indazol-2-yl)-N-hydroxy-3-phenylpropanamide] | ≤ 50 nM | 
O=C(NO)C(Cc1ccccc1)c1cnc2c(-c3ccncc3)cccn12 (stereo not drawn) [Compound I-0162, N-hydroxy-3-phenyl-2-(8-(pyridin-4-yl)imidazo[1,2-a]pyridin-3-yl)propanamide] | 200 to 500 nM | 
COCCn1cc(-c2cccc3c(C#CC4CC4)n(C(Cc4ccccc4)C(=O)NO)nc23)c(C)n1 (stereo not drawn) [Compound I-0165, 2-(3-(cyclopropylethynyl)-7-(1-(2-methoxyethyl)-3-methyl-1H-pyrazol-4-yl)-2H-indazol-2-yl)-N-hydroxy-3-phenylpropanamide] | ≤ 50 nM | 
Cc1n[nH]cc1-c1cccc2c(C#CC3CC3)n(C(Cc3ccccc3)C(=O)NO)nc12 (stereo not drawn) [Compound I-0166, 2-(3-(cyclopropylethynyl)-7-(3-methyl-1H-pyrazol-4-yl)-2H-indazol-2-yl)-N-hydroxy-3-phenylpropanamide] | ≤ 50 nM | 
CN(C)C(=O)c1ccc(-c2cccn3c(C(Cc4ccccc4)C(=O)NO)cnc23)cc1 (stereo not drawn) [Compound I-0168, 4-(3-(1-(hydroxyamino)-1-oxo-3-phenylpropan-2-yl)imidazo[1,2-a]pyridin-8-yl)-N,N-dimethylbenzamide] | > 500 nM | 
NC(=O)c1cccc(-c2cccn3c(C(Cc4ccccc4)C(=O)NO)cnc23)c1 (stereo not drawn) [Compound I-0169, 3-(3-(1-(hydroxyamino)-1-oxo-3-phenylpropan-2-yl)imidazo[1,2-a]pyridin-8-yl)benzamide] | 200 to 500 nM | 
Cc1cccn2c(C(Cc3ccccc3)C(=O)NO)cnc12 (stereo not drawn) [Compound I-0171, N-hydroxy-2-(8-methylimidazo[1,2-a]pyridin-3-yl)-3-phenylpropanamide] | 200 to 500 nM | 
COC(=O)C(Cc1ccccc1)n1cc2cccc(C(=O)N3CCC(F)(F)CC3)c2n1 (stereo not drawn) [Compound I-0172, methyl 2-(7-(4,4-difluoropiperidine-1-carbonyl)-2H-indazol-2-yl)-3-phenylpropanoate] | 200 to 500 nM | 
O=C(NO)C(Cc1ccccc1)n1cc2cccc(C(=O)N3CCOCC3)c2n1 (stereo not drawn) [Compound I-0173, N-hydroxy-2-[7-(morpholin-4-ylcarbonyl)-2H-indazol-2-yl]-3-phenylpropanamide] | > 500 nM | 1170 nM
O=C(NO)C(Cc1ccccc1)n1cc2cccc(C(=O)N3CCC4(CC3)COC4)c2n1 (stereo not drawn) [Compound I-0174, 2-(7-(2-oxa-7-azaspiro[3.5]nonane-7-carbonyl)-2H-indazol-2-yl)-N-hydroxy-3-phenylpropanamide] | > 500 nM | 
O=C(NCCN1CCOCC1)c1cccc2cn(C(Cc3ccccc3)C(=O)NO)nc12 (stereo not drawn) [Compound I-0179, 2-(1-(hydroxyamino)-1-oxo-3-phenylpropan-2-yl)-N-(2-morpholinoethyl)-2H-indazole-7-carboxamide] | 50 to 200 nM | 
O=C(NO)C(Cc1ccccc1)n1cc2cccc(CNCC3CC3)c2n1 (stereo not drawn) [Compound I-0181, 2-(7-((cyclopropylmethylamino)methyl)-2H-indazol-2-yl)-N-hydroxy-3-phenylpropanamide] | > 500 nM | 
O=C(NO)C(Cc1ccccc1)n1cc2cccc(CNC3CCOCC3)c2n1 (stereo not drawn) [Compound I-0182, N-hydroxy-3-phenyl-2-(7-((tetrahydro-2H-pyran-4-ylamino)methyl)-2H-indazol-2-yl)propanamide] | > 500 nM | 

Other lines, results leading:

IC50 [1] | IC50 (HDAC8, read-out: IC50) | Compound
50 to 200 nM |  | CN1CCN(c2ccc(-c3cccc4nn(C(Cc5ccccc5)C(=O)NO)cc34)cn2)CC1 (stereo not drawn) [Compound I-0149, N-hydroxy-2-(4-(6-(4-methylpiperazin-1-yl)pyridin-3-yl)-2H-indazol-2-yl)-3-phenylpropanamide]
200 to 500 nM |  | CN1CCN(c2ccc(-c3ccn4c(C(Cc5ccccc5)C(=O)NO)cnc4c3)cn2)CC1 (stereo not drawn) [Compound I-0152, N-hydroxy-2-(7-(6-(4-methylpiperazin-1-yl)pyridin-3-yl)imidazo[1,2-a]pyridin-3-yl)-3-phenylpropanamide]
≤ 50 nM |  | O=C(NO)C(Cc1ccccc1)n1nc2c(-c3ccncc3)cccc2c1C#CC1CC1 (stereo not drawn) [Compound I-0154, 2-(3-(cyclopropylethynyl)-7-(pyridin-4-yl)-2H-indazol-2-yl)-N-hydroxy-3-phenylpropanamide]
≤ 50 nM |  | O=C(NO)C(Cc1ccccc1)n1nc2c(-c3cncnc3)cccc2c1C#CC1CC1 (stereo not drawn) [Compound I-0156, 2-(3-(cyclopropylethynyl)-7-(pyrimidin-5-yl)-2H-indazol-2-yl)-N-hydroxy-3-phenylpropanamide]
≤ 50 nM |  | CNC(=O)c1cccc(-c2cccc3c(C#CC4CC4)n(C(Cc4ccccc4)C(=O)NO)nc23)c1 (stereo not drawn) [Compound I-0158, 3-(3-(cyclopropylethynyl)-2-(1-(hydroxyamino)-1-oxo-3-phenylpropan-2-yl)-2H-indazol-7-yl)-N-methylbenzamide]
> 500 nM |  | O=C(NO)C(Cc1ccccc1)c1cnc2c(-c3cccnc3)cccn12 (stereo not drawn) [Compound I-0163, N-hydroxy-3-phenyl-2-(8-(pyridin-3-yl)imidazo[1,2-a]pyridin-3-yl)propanamide]
> 500 nM |  | O=C(NO)C(Cc1ccccc1)c1cnc2c(-c3cncnc3)cccn12 (stereo not drawn) [Compound I-0164, N-hydroxy-3-phenyl-2-(8-pyrimidin-5-ylimidazo[1,2-a]pyridin-3-yl)propanamide]
200 to 500 nM |  | NC(=O)c1ccc(-c2cccn3c(C(Cc4ccccc4)C(=O)NO)cnc23)cc1 (stereo not drawn) [Compound I-0167, 4-(3-(1-(hydroxyamino)-1-oxo-3-phenylpropan-2-yl)imidazo[1,2-a]pyridin-8-yl)benzamide]
> 500 nM |  | O=C(NO)C(Cc1ccccc1)c1cnc2c(C3CC3)cccn12 (stereo not drawn) [Compound I-0170, 2-(8-cyclopropylimidazo[1,2-a]pyridin-3-yl)-N-hydroxy-3-phenylpropanamide]
> 500 nM |  | O=C(NO)C(Cc1ccccc1)n1cc2cccc(C(=O)N3CCC4(CCOCC4)CC3)c2n1 (stereo not drawn) [Compound I-0175, 2-(7-(3-oxa-9-azaspiro[5.5]undecane-9-carbonyl)-2H-indazol-2-yl)-N-hydroxy-3-phenylpropanamide]
50 to 200 nM |  | O=C(NC1CCOCC1)c1cccc2cn(C(Cc3ccccc3)C(=O)NO)nc12 (stereo not drawn) [Compound I-0176, 2-(1-(hydroxyamino)-1-oxo-3-phenylpropan-2-yl)-N-(tetrahydro-2H-pyran-4-yl)-2H-indazole-7-carboxamide]
≤ 50 nM |  | O=C(NCC1CCOCC1)c1cccc2cn(C(Cc3ccccc3)C(=O)NO)nc12 (stereo not drawn) [Compound I-0177, 2-(1-(hydroxyamino)-1-oxo-3-phenylpropan-2-yl)-N-((tetrahydro-2H-pyran-4-yl)methyl)-2H-indazole-7-carboxamide]
≤ 50 nM |  | O=C(NCCC1CCOCC1)c1cccc2cn(C(Cc3ccccc3)C(=O)NO)nc12 (stereo not drawn) [Compound I-0178, 2-(1-(hydroxyamino)-1-oxo-3-phenylpropan-2-yl)-N-(2-(tetrahydro-2H-pyran-4-yl)ethyl)-2H-indazole-7-carboxamide]
200 to 500 nM | 469 nM | O=C(NO)C(Cc1ccccc1)n1cc2cccc(CNC3CC3)c2n1 (stereo not drawn) [Compound I-0180, 2-{7-[(Cyclopropylamino)methyl]-2H-indazol-2-yl}-N-hydroxy-3-phenylpropanamide]
200 to 500 nM |  | O=C(NO)C(Cc1ccccc1)n1cc2cccc(CN3CCOCC3)c2n1 (stereo not drawn) [Compound I-0183, N-hydroxy-2-(7-(morpholinomethyl)-2H-indazol-2-yl)-3-phenylpropanamide]
